Reference: PubChem BioAssay AID330 (DTP/NCI, 2004)
Several values for one entry are separate records, joined by “and”; a condition that tells them apart may be missing. Equal entries are not always repeated. Toxic doses and inconclusive results are not listed. Rule for the calls: active = survival T/C of 150% or more; inactive = T/C below 125% in these data.

Test system: P388 leukemia ip, CD2F1 mice, survival T/C
Test: NCI In Vivo Anticancer Drug Screen. Data for tumor model P388 Leukemia (intraperitoneal) in CD2F1 (CDF1) mice
Settings: endpoint: median survival time, higher = longer survival
Summary of the method: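 Mice carrying the transplanted tumor received test compound or vehicle. Survival was recorded in each group, and the value is the treated-group measurement divided by that of the vehicle-treated control group.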

[1] = dose: 50.0 mg/kg/injection, schedule: Q01DX009 (ip), vehicle: Klucel (hydroxypropylcellulose) (HPC)
[2] = dose: 100.0 mg/kg/injection, schedule: Q01DX009 (ip), vehicle: Klucel (hydroxypropylcellulose) (HPC)
[3] = dose: 200.0 mg/kg/injection, schedule: Q01DX009 (ip), vehicle: Klucel (hydroxypropylcellulose) (HPC)
[4] = dose: 25.0 mg/kg/injection, schedule: Q01DX009 (ip), vehicle: other
[5] = dose: 50.0 mg/kg/injection, schedule: Q01DX009 (ip), vehicle: other
[6] = dose: 100.0 mg/kg/injection, schedule: Q01DX009 (ip), vehicle: other
[7] = dose: 200.0 mg/kg/injection, schedule: Q01DX009 (ip), vehicle: other
[8] = dose: 50.0 mg/kg/injection, schedule: Q01DX005 (ip), vehicle: saline with Tween-80
[9] = dose: 100.0 mg/kg/injection, schedule: Q01DX005 (ip), vehicle: saline with Tween-80
[10] = dose: 200.0 mg/kg/injection, schedule: Q01DX005 (ip), vehicle: saline with Tween-80
[11] = dose: 60.0 mg/kg/injection, schedule: Q01DX005 (ip), vehicle: Klucel (hydroxypropylcellulose) (HPC)
[12] = dose: 120.0 mg/kg/injection, schedule: Q01DX005 (ip), vehicle: Klucel (hydroxypropylcellulose) (HPC)
[13] = dose: 240.0 mg/kg/injection, schedule: Q01DX005 (ip), vehicle: Klucel (hydroxypropylcellulose) (HPC)
[14] = dose: 60.0 mg/kg/injection, schedule: Q01DX005 (ip), vehicle: saline with Tween-80
[15] = dose: 120.0 mg/kg/injection, schedule: Q01DX005 (ip), vehicle: saline with Tween-80
[16] = dose: 240.0 mg/kg/injection, schedule: Q01DX005 (ip), vehicle: saline with Tween-80
[17] = dose: 50.0 mg/kg/injection, schedule: Q01DX005 (ip), vehicle: Klucel (hydroxypropylcellulose) (HPC)
[18] = dose: 100.0 mg/kg/injection, schedule: Q01DX005 (ip), vehicle: Klucel (hydroxypropylcellulose) (HPC)
[19] = dose: 200.0 mg/kg/injection, schedule: Q01DX005 (ip), vehicle: Klucel (hydroxypropylcellulose) (HPC)
[20] = dose: 25.0 mg/kg/injection, schedule: Q01DX009 (ip), vehicle: saline with Tween-80
[21] = dose: 50.0 mg/kg/injection, schedule: Q01DX009 (ip), vehicle: saline with Tween-80
[22] = dose: 100.0 mg/kg/injection, schedule: Q01DX009 (ip), vehicle: saline with Tween-80
[23] = dose: 12.5 mg/kg/injection, schedule: Q01DX009 (ip), vehicle: saline

Measured: T/C

CCCCCCCCCCCCCCCC(=O)N(CCC#N)C(C)(C)CCC(C)(C)N(CCC#N)C(=O)CCCCCCCCCCCCCCC
inactive: dose: 12.5 mg/kg/injection, schedule: Q01DX009 (ip), vehicle: Klucel (hydroxypropylcellulose) (HPC) 99 % of control | dose: 12.5 mg/kg/injection, schedule: Q04DX003 (ip), vehicle: Klucel (hydroxypropylcellulose) (HPC) 88 % of control | dose: 25.0 mg/kg/injection, schedule: Q01DX009 (ip), vehicle: Klucel (hydroxypropylcellulose) (HPC) 98 % of control | dose: 25.0 mg/kg/injection, schedule: Q04DX003 (ip), vehicle: Klucel (hydroxypropylcellulose) (HPC) 88 % of control | [1] 97 % of control | [2] 91 % of control | [3] 91 % of control | dose: 200.0 mg/kg/injection, schedule: Q04DX003 (ip), vehicle: Klucel (hydroxypropylcellulose) (HPC) 94 % of control

NC(CSCSCc1ccccc1)C(=O)O (stereo unspecified)
inactive: [4] 102 % of control | [5] 110 % of control | [6] 102 % of control | [7] 106 % of control

CCN(CC)c1c(C)c(-c2ccccc2)oc(=O)c1Cl
inactive: [8] 100 % of control | [9] 100 % of control | [10] 115 % of control

Nc1ccc(C2NC(=O)Cc3c2ccc2ccccc32)cc1 (stereo unspecified)
inactive: [11] 95 % of control | [12] 94 % of control | [13] 95 % of control

Cc1c2cc[n+](C)cc2c(COC2OC(CO)C(O)C2O)c2c3ccccc3n(C)c12 (stereo unspecified)
inactive: [11] 123 % of control

CC1(C)CC2C[C@H]3CC[C@@H]4O[C@]34C2[C@H]1OC(=O)/C=C/c1ccccc1 (stereo partly specified)
inactive: dose: 74.5 mg/kg/injection, schedule: Q01DX001 (ip), vehicle: saline with Tween-80 100 % of control | dose: 149.0 mg/kg/injection, schedule: Q01DX001 (ip), vehicle: saline with Tween-80 99 % of control | dose: 298.0 mg/kg/injection, schedule: Q01DX001 (ip), vehicle: saline with Tween-80 99 % of control

O=S1(=O)C=C(c2ccccc2)S(=O)(=O)C=C1c1ccccc1
inactive: dose: 100.0 mg/kg/injection, schedule: Q04DX003 (ip), vehicle: saline with Tween-80 102 % of control | dose: 200.0 mg/kg/injection, schedule: Q04DX003 (ip), vehicle: saline with Tween-80 96 % of control

Cc1nc(N)nc(Nc2ccccc2)n1
inactive: [14] 103 % of control | [15] 99 % of control | [16] 101 % of control

Cc1ccc(N2CC(O)CN(c3ccc(C)cc3)CC(O)C2)cc1 (stereo unspecified)
inactive: [14] 97 % of control | [15] 97 % of control | [16] 94 % of control

CCC1(C)CC(=O)NC(=O)C1
inactive: dose: 2.5 mg/kg/injection, schedule: Q01DX009 (ip), vehicle: saline with Tween-80 95 % of control | dose: 5.0 mg/kg/injection, schedule: Q01DX009 (ip), vehicle: saline with Tween-80 95 % of control | dose: 10.0 mg/kg/injection, schedule: Q01DX009 (ip), vehicle: saline with Tween-80 86 % of control

O=C(NC(CO)C(=O)OCc1ccccc1)OCCc1ccccn1 (stereo unspecified)
inactive: [11] 100 % of control | [12] 96 % of control | [13] 96 % of control

NC1=NC(c2ccccc2)C=C(c2ccccc2)N1 (stereo unspecified)
inactive: dose: 12.5 mg/kg/injection, schedule: Q04DX002 (ip), vehicle: saline with Tween-80 104 % of control | dose: 25.0 mg/kg/injection, schedule: Q04DX002 (ip), vehicle: saline with Tween-80 103 % of control | dose: 50.0 mg/kg/injection, schedule: Q04DX002 (ip), vehicle: saline with Tween-80 103 % of control

COC(=O)c1cc(OC)cc(C)c1OC(=Nc1cccc(Cl)c1C)c1ccccc1
inactive: [17] 97 % of control | [18] 92 % of control | [19] 96 % of control

O=C1c2ccccc2C(=O)c2c(O)c(O)cc(O)c21
inactive: dose: 60.0 mg/kg/injection, schedule: Q01DX005 (ip), vehicle: saline 94 % of control | dose: 120.0 mg/kg/injection, schedule: Q01DX005 (ip), vehicle: saline 91 % of control | dose: 240.0 mg/kg/injection, schedule: Q01DX005 (ip), vehicle: saline 94 % of control

O=C([Se][Se]C(=O)c1ccc(Cl)cc1)c1ccc(Cl)cc1
inactive: dose: 12.5 mg/kg/injection, schedule: Q01DX009 (ip), vehicle: saline with Tween-80 99 % of control | [20] 100 % of control | [21] 100 % of control | [22] 98 % of control

O=c1[nH]c(=S)[nH]nc1/C=C/C=C/c1ccccc1
inactive: dose: 100.0 mg/kg/injection, schedule: Q01DX001 (ip), vehicle: saline 96 % of control | dose: 200.0 mg/kg/injection, schedule: Q01DX001 (ip), vehicle: saline 97 % of control | dose: 400.0 mg/kg/injection, schedule: Q01DX001 (ip), vehicle: saline 105 % of control

CCCc1c2cc(OC)c(OC)cc2cc2c3cc(OC)c(OC)cc3cc[n+]12 (tested in a mixture with another compound)
inactive: [20] 102 % of control | [21] 111 % of control | [22] 109 % of control

C1CCSCCCCCSCCCCCSCCCCCSCC1
inactive: [1] 97 % of control | [2] 96 % of control | [3] 94 % of control

C=Cc1cc[n+](CC(=O)c2ccccc2)cc1
inactive: dose: 3.12 mg/kg/injection, schedule: Q01DX009 (ip), vehicle: saline 90 % of control | dose: 6.25 mg/kg/injection, schedule: Q01DX009 (ip), vehicle: saline 90 % of control | [23] 103 % of control and 90 % of control

Cc1c(Cl)cc[n+]([O-])c1C
inactive: [4] 100 % of control | [5] 108 % of control | [6] 108 % of control | [7] 107 % of control | dose: 400.0 mg/kg/injection, schedule: Q01DX009 (ip), vehicle: other 110 % of control

CCOC(CN=Cc1cc(C)c2[nH]c3ccccc3c2c1C)OCC
inactive: [8] 97 % of control | [9] 102 % of control | [10] 102 % of control

CCCCCCC(=O)/C=C/c1cccc([N+](=O)[O-])c1
inactive: [21] 89 % of control | [22] 95 % of control | dose: 200.0 mg/kg/injection, schedule: Q01DX009 (ip), vehicle: saline with Tween-80 94 % of control

CCOC(=O)c1ccc(N=NN(C)CC2OC3OC(C)(C)OC3C2OC)cc1 (stereo unspecified)
inactive: dose: 100.0 mg/kg/injection, schedule: Q04DX002 (ip), vehicle: saline with Tween-80 98 % of control | dose: 200.0 mg/kg/injection, schedule: Q04DX002 (ip), vehicle: saline with Tween-80 98 % of control | dose: 400.0 mg/kg/injection, schedule: Q04DX002 (ip), vehicle: saline with Tween-80 102 % of control

CC1(C)CC(NCCO)=CC(=S)N1
inactive: [17] 103 % of control | [18] 101 % of control | [19] 99 % of control

Cn1c(=O)c2nc(-c3ccccn3)cnc2n(C)c1=O
inactive: dose: 25.0 mg/kg/injection, schedule: Q01DX001 (ip), vehicle: Klucel (hydroxypropylcellulose) (HPC) 116 % of control | dose: 50.0 mg/kg/injection, schedule: Q01DX001 (ip), vehicle: Klucel (hydroxypropylcellulose) (HPC) 106 % of control | dose: 100.0 mg/kg/injection, schedule: Q01DX001 (ip), vehicle: Klucel (hydroxypropylcellulose) (HPC) 100 % of control and 122 % of control and 92 % of control | dose: 200.0 mg/kg/injection, schedule: Q01DX001 (ip), vehicle: Klucel (hydroxypropylcellulose) (HPC) 95 % of control (2×) and 96 % of control | dose: 400.0 mg/kg/injection, schedule: Q01DX001 (ip), vehicle: Klucel (hydroxypropylcellulose) (HPC) 94 % of control and 95 % of control

CCOC(=O)C1=C(C)NC(C)=C(C(=O)OCC)C1c1ccccc1Cl
inactive: [23] 100 % of control | dose: 25.0 mg/kg/injection, schedule: Q01DX009 (ip), vehicle: saline 110 % of control | dose: 50.0 mg/kg/injection, schedule: Q01DX009 (ip), vehicle: saline 120 % of control
